Test results: a melting point compilation (Tetko et al.; mined from patent text by program, amines drawn as free bases though some values may be those of a salt)

Point of comparison: `CCOCCn1c(NC2CCN(C(=O)c3cc(C(F)(F)F)cc(C(F)(F)F)c3)C(Cc3ccccc3)C2)nc2ccccc21` (configuration not stated), melting point 178 °C. Against it:
- CN1CN=C2C=C(Nc3ccc(I)cc3F)C(F)(C(N)=O)C=C21 (configuration not stated) — higher, 265 to 268 °C
- Oc1ccccc1-c1noc2ccsc12 — lower, 121 °C
- CCCCc1nc2c(N)nc3ccccc3c2n1CCCCCCCCNC(=O)c1ccccc1 — lower, 150 to 151 °C
- O=C1C2CC3CC1CC(c1cc(Br)ccc1OCc1ccccc1)(C3)C2 — lower, 163 to 165 °C
- Cc1nc2nc(S(=O)(=O)Nc3c(Cl)cccc3Cl)nn2cc1Br — higher, 215 to 216 °C
- C=CCN1C(=O)C2CC(c3ccc(N)cc3)(C2)C1=O — not separable, 176 to 178 °C
- Cc1ccc(-c2nc(=S)n(Cc3ccccc3)[nH]2)cc1 — higher, 234 to 235 °C
- CNc1nc2ccc(C3=NNC(=O)NC3C)cc2s1 (configuration not stated) — higher, 290 to 295 °C
- COc1ccc2nc(NC(=O)CO)sc2c1 — higher, 208 to 209 °C
- OCC1Cc2c(F)ccc(Br)c2O1 (configuration not stated) — lower, 40 to 43 °C
- Cc1ccc(Cn2c(=O)c3c(N4CCN(C)CC4)cc(Cl)cc3n(Cc3ccccc3)c2=O)cc1 — lower, 92 to 97 °C
- CCOC(=O)C(=CNC1CC1)C(=O)c1c(C)c(F)c(F)c(F)c1F — lower, 72 to 74 °C
- COC(=O)C1=C(C)NC(C)=C(C(=O)OCCCOc2ccc(CCO)cc2)C1c1cccc([N+](=O)[O-])c1 (configuration not stated) — lower, < 50 °C
- CN(C)CCCc1cccc(OCCCNc2nc(N)nn2C)c1 — lower, 64 to 65.5 °C
- CCNc1nc(NCc2ccco2)nc(Nc2ccc(O)cc2)n1 — lower, 76 to 78 °C
- COc1c(Cl)cc(C(=O)Nc2ccc(F)cc2)c(Nc2ccccc2)c1Cl — higher, 220 °C
- COC(=O)c1c(-c2cc3ccccc3o2)ccc2ccccc12 — lower, 111 to 112 °C
- CC(=O)ON1C(C)(C)CC(OC(=O)c2ccccc2)CC1(C)C — lower, 110 to 112 °C
- CCOC(=O)c1c(Cl)c2cnccc2[nH]c1=O — higher, 219 °C
- CC1(C(=O)O)CCc2onc(-c3ccc(Cl)cc3)c2CC1 (configuration not stated) — lower, 163 °C
- Cc1c(Cc2cccc(C(F)(F)F)c2)sc2c(-c3cccc(C(=O)NCCO)c3)cccc12 — lower, 140 to 145 °C
- O=C(c1ccc([N+](=O)[O-])cc1)c1ccc2[nH]c(=O)sc2c1 — lower, 148 to 152 °C
- CCCn1cc(C(=O)OCC)c(C(=O)OCC)c1N1C(=O)c2ccccc2C1=O — lower, 100 to 101 °C
- Oc1cncc(CCCOc2cccnc2Oc2cccc(Cl)c2)c1 — lower, 148 to 149 °C
- O=C(NCS(=O)(=O)c1ccccc1)c1cc(Cl)nc(Cl)c1 — higher, 209 to 210 °C
- CS(=O)(=O)Nc1cc2c(cc1Oc1ccccc1)C(=O)C(Br)CO2 (configuration not stated) — lower, 137 to 140 °C
- O=C(O)C1=Cc2c(ccc3oc4ccccc4c23)OC1C(F)(F)F (configuration not stated) — higher, 254 to 255 °C
- CCOc1cccc(C)c1S(=O)(=O)NC(=O)c1noc(C)n1 — lower, 168 °C
- ClCc1nc(Cl)c2ccccc2n1 — lower, 99 to 101 °C
- CCCc1nccn1NCc1cc(C(C)(C)C)c(O)c(C(C)(C)C)c1 — lower, 122 to 123 °C
- CCSc1cc(C)nc(SCC)c1NC(=O)CN1CCN(CCSc2nc3cccc([N+](=O)[O-])c3o2)CC1 — lower, 50 to 52 °C
- CNC(=O)c1cccc(F)c1Nc1nc(Nc2ccc3c(c2)C(=O)NCCC3)ncc1Cl — higher, 200 °C
- COc1ccc(-c2cn(-c3cc4c(=O)n(NS(C)(=O)=O)c(=O)[nH]c4cc3C(F)(F)F)cn2)cc1 — higher, 293 to 294 °C
- CCCCOc1ccc(S(=O)(=O)C2(C(=O)NO)CCN(Cc3ccc(OC)cc3)CC2)cc1 — lower, 173 °C
- CCOc1ccc(S(=O)(=O)N(CC(=O)NN=C2C(=O)Nc3ccc(I)cc32)c2ccccc2)cc1 — higher, 233 to 234 °C
- COc1ccccc1CN[C@@H]1[C@@H]2CCN([C@H](CCc3ccccc3)C2)[C@@H]1C(c1ccccc1)c1ccccc1 (relative stereo) — lower, 107 to 108 °C
- CC(C)c1cccc(C(C)C)c1NC(=O)CNC(c1ccccc1)c1cccc2ccccc12 (configuration not stated) — lower, 149 to 151 °C
- CN(C(=O)OC(C)(C)C)c1cc(Sc2cc(C(C)(C)C)c(O)c(C(C)(C)C)c2)ccc1[N+](=O)[O-] — lower, 140 to 141 °C
- O=c1nc(-c2ccccc2)oc2ccccc12 — lower, 104 to 105 °C
- Cn1c(=O)n(Cc2ccc(F)cc2)c(=O)c2cc(C(=O)c3nc(Br)c4ccccn34)ccc21 — higher, 280 °C
- CC(C)CC(NS(=O)(=O)c1ccc(Cl)cc1)C(=O)Nc1ccc(CC(=O)O)cc1 (racemic) — higher, 208 to 209 °C
- C#Cc1cccc(-n2c(=O)oc3ccc(-c4ccc(F)cc4F)cc3c2=O)c1 — higher, 195 to 196 °C
- COc1ccc(Cl)cc1C(=O)NCCc1ccc(-c2ccccc2)c(S(N)(=O)=O)c1 — lower, 134 to 136 °C
- CCCC1Sc2nncn2N=C1c1ccc2c(c1)NC(=O)CO2 (configuration not stated) — higher, 235 to 237 °C
- CS(=O)c1ccc(-c2coc3ccc(-c4nnc(N)o4)cc23)cc1Cl (configuration not stated) — higher, 266 to 267 °C
- COc1ccc(C(=O)c2oc3cccc(O)c3c2C)cc1 — higher, 192 to 195 °C
- COc1cc(C#N)ccc1-c1ccnc(-c2ccc(C#N)cc2)n1 — higher, 239 to 240 °C
- Cc1ccc(-c2c(-c3ccc(S(C)(=O)=O)cc3)cnn(-c3cccc(Cl)c3)c2=O)cc1 — higher, 222 to 224 °C
- CN(C(=O)c1ccc(Cn2ncc3ccccc32)cc1)C1CCNCC1 — lower, 146 to 148 °C
- CC(=O)C(C(C)=O)c1ccccc1 — lower, 40 to 52 °C
- CCN(CC)CCn1c(=O)c2cnc3c(cnn3CC)c2n2nc(C)cc12 — lower, 90 to 92 °C
- CN1CCC(c2c[nH]c3cc(F)c(OS(=O)(=O)c4c(F)cccc4F)cc23)CC1 — higher, 202 °C
- CCOC(=O)c1oc2cc(O)c(O)cc2c1C — higher, 212 to 214 °C
- CC(C)(C)OC(=O)[C@@H](Cc1ccccc1)NC(=O)C1CN(c2ccc(C(N)=S)cc2)C(=O)O1 (some centres not stated) — lower, 167 to 169 °C
- CN(C(=O)C(F)(F)F)C1Cc2ccc(C(=O)Cn3cnc4cc(-c5ccc(Cl)cc5)sc4c3=O)cc2C1 (configuration not stated) — higher, 245 to 248 °C
- COc1ccc(NS(=O)(=O)c2cc3cc(Br)ccc3oc2=O)cc1 — higher, 182 to 184 °C
- Cn1ccc2cc(NC(=O)Nc3cncnc3)ccc21 — higher, 210 to 213 °C
- COc1cccc(CC(=O)O)c1OCCCc1cc(OC(C)C)nn1Cc1c(F)cccc1Cl — lower, 97 to 98 °C
- CCOCc1nc2c(N)nc3cc(N4CCCC4=O)ccc3c2n1CCCOC(C)C — lower, 165 to 167 °C
- O=[N+]([O-])c1ccc(Cl)cc1NC1CCCC1 — lower, 75 °C
- CCc1csc(CCc2ccc(NC(=O)/C=C/c3cnn(C)c3-c3ccc(F)cc3)cc2)n1 — higher, 200 to 201 °C
- CN(Cc1ccc2c(Br)c(O)ccc2c1)C(=O)c1cn(Cc2ccccc2)c2ccccc12 — higher, 181 to 182 °C
- C[C@H](NC(=O)OCc1ccccc1)C(=O)N1CCC[C@H]1C(=O)NC1CCCCCCC1 — lower, 94 to 96 °C
- COc1ccc2c(c1)C1=NNC(c3ccncc3)C1CCC2 (configuration not stated) — lower, 162 to 166 °C
- COc1cc(/C=C/CCO)ccc1OCc1ccccc1 — lower, 57 to 61 °C
- CC(=O)C1CCC2C3CCC4CC(F)CCC4(C)C3CCC12C (configuration not stated) — lower, 154 to 155 °C
- N#Cc1cccc(C=CCN2CCc3nc(N)sc3CC2)c1 — lower, 136 to 140 °C
- Cc1cc(C)nc(NC(=O)Cc2c(Cl)sc3ccccc23)c1 — lower, 123 to 124 °C
- CC(=O)N1CCc2c([nH]c3ccc(Cl)cc23)C1CCCN1CCN(C)CC1 (configuration not stated) — lower, 59 to 61 °C
- CC(C)Sc1cn(C)cc(-c2cccc(C(F)(F)F)c2)c1=O — lower, 93 to 94 °C
- CC(C)(C)OC(=O)C=C(c1ccc(C#N)cc1)n1ccnc1 — lower, 151 to 153 °C
- O=C(NC1CCCCC1)c1c(O)c2cc(F)ccc2n(Cc2ccccc2)c1=O — lower, 130 to 134 °C
- CN(Cc1cc(C(=O)OC(C)(C)C)ccc1[N+](=O)[O-])C(=O)OC(C)(C)C — lower, 56 to 58 °C
- COc1ccccc1[N+]1([O-])CC[N+]([O-])(CCN(C(=O)C2CCCCC2)c2ccccc2[N+](=O)[O-])CC1 (configuration not stated) — lower, 153 to 157 °C
- CC(=O)Nc1ccc(C=CC2=NNC(=O)SC2)cc1 — higher, 235 to 240 °C
- CCc1ccc2[nH]c3c(=O)n(CCN(C)C)c4ccccc4c3c2c1 — higher, 266 to 268 °C
- COc1ccc(CNc2nnc(-c3ccc(C(F)(F)F)cc3)cc2C(F)(F)F)cc1 — lower, 101 to 103 °C
- Cc1cc(C)cc(-c2nc(NC(=O)Cc3ccccc3)sc2-c2ccncc2)c1 — higher, 226 to 229 °C
- N#Cc1ccc(CCC(=O)c2ccc(C#N)cc2)cc1 — lower, 149 to 152 °C
- COc1ccc(/C=C(\C#N)c2cccc(F)c2)cc1OC1CCCC1 — lower, 114 to 116 °C
- O=C1c2ccc(CCCCc3ccccc3)cc2CCN1O — lower, 82 to 83 °C
- N#Cc1ccc(-c2cc(-c3ccc(C#N)cc3Cl)on2)cc1 — higher, 260 to 262 °C
- N#Cc1cc(C(F)(F)F)[nH]c1-c1ccc(Br)o1 — higher, 224 to 226 °C
- COc1cc(Oc2cccc(OC(F)(F)F)c2)nc(C(=O)Nc2ccccc2)c1 — lower, 95 to 98 °C
- CC(=O)OC1CC(=O)N([Si](C)(C)C)C1 (configuration not stated) — lower, 148 to 150 °C
- Cn1nc(-c2ccc([N+](=O)[O-])cc2)c2ccccc2c1=O — higher, 200 to 202 °C
- CCCCc1c(Cl)nc(N)nc1-c1ccsc1 — lower, 154 to 155 °C
- CCCCCCCCCCCCCCCCOC(=O)Nc1ccc(NC(=O)NS(=O)(=O)c2ccc(OC)cc2)cc1 — higher, 185 °C
- CCOC(=O)c1[nH]c2c(C)ccc(C)c2c1-c1ccccc1 — lower, 107 to 108 °C
- O=C(CCCN1CCN(c2noc3cc(OC(=O)C45CC6CC(CC(C6)C4)C5)ccc23)CC1)c1ccc(F)cc1 — lower, 157 to 158 °C
- Cc1nc(-c2cc(C)c(OCCCc3cc(C(F)(F)F)no3)c(C)c2)no1 — lower, 62 to 64.5 °C
- O=C(NCCCc1c[nH]c2ccc(OCc3ccc4ccccc4n3)cc12)OCc1ccccc1 — lower, 109 to 111 °C
- CCCCCCCCCC(C)NC(=O)C=Cc1cccc([N+](=O)[O-])c1 (configuration not stated) — lower, 81 to 83 °C
- CN1CCC(NC(=O)C2c3ccccc3NC(=O)c3ccccc32)CC1 (configuration not stated) — higher, 230 to 231 °C
- CCCCCCCCCCCCCCCCCCOC(=O)N(C)CC(O)C(O)C(O)C(O)CO (configuration not stated) — lower, 85 °C
- COC(=O)c1ccc(CNC(=O)c2[nH]c(-c3ccoc3)cc2-c2ccc(O)cc2)cc1 — higher, 223 to 224 °C
